# The source made the active and inactive calls.
# Experiments:
# [1] = target: T1, Calpain-2 catalytic subunit (Sus scrofa, UniProt P43367); test: m-calpain protease blockers, concentration series – biochemical, fluorogenic peptide substrate, dose response (AID 1420); assay type: functional
# T1 sequence (P43367 whole entry): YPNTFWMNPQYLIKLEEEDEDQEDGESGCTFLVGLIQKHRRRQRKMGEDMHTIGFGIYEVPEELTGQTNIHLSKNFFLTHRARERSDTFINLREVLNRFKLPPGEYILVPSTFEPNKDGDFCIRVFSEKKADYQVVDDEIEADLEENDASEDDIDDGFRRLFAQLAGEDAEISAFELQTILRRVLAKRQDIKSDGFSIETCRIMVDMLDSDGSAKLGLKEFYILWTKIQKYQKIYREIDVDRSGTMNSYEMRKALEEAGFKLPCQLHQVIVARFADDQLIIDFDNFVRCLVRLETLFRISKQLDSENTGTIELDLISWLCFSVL
# Vero = test: cells; assay type: functional; settings: Chlorocebus sabaeus
# [2] = tested on: Streptococcus sp. 'group A'; test: Streptococcus pyogenes SK(-)GAS viability under kanamycin – luminescence, BacTiterGlo, confirmation, counter-screen for streptokinase expression inhibitor project, dose response (AID 1900); assay type: functional, organism-based
# Streptococcus = test: GAS UMAA2166 growth inhibition – luminescence, BacTiterGlo, counter-screen for streptokinase expression inhibitor project, dose response (AID 1915); assay type: functional, organism-based;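 also: potency for reduction of bacterial viability or growth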
# [3] = microbe, parasite or virus in culture; assay type: functional; settings: Mycobacterium tuberculosis
# [4] = target: T2, Ubiquitin-conjugating enzyme E2 N (Homo sapiens, UniProt P61088); assay type: functional;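 also: Dose-response confirmation in a TR-FRET assay detecting UBC13-driven polyubiquitin chain formation, inhibition measured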
# T2 sequence (P61088 whole entry): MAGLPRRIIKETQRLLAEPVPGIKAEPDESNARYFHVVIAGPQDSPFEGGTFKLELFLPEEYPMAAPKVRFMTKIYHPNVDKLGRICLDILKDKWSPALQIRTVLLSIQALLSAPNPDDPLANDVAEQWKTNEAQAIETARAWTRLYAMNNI
# [5] = target: T3, Polyadenylate-binding protein 1 (Homo sapiens, UniProt P11940); test: MLLE binding blockers, Cy5 peptide tracer – biochemical, fluorescence polarization, Cy5-PAM2 peptide, secondary, miRNA deadenylation inhibitor project, dose response (AID 602260); assay type: functional; settings: read-out: IC50_Mean
# INS1 = test: INS-1E survival protection against cytokine death – cell-based, luminescence, retest, dose response (AID 449756); assay type: functional; settings: Rattus norvegicus;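 also: cell death triggered by IL-1 beta plus TNF-alpha plus IFN-gamma mixture; protective hits raise ATP signal compared with cytokine alone wells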
# [6] = target: T3, Polyadenylate-binding protein 1; test: MLLE domain peptide-binding blockers, IC50 – biochemical, fluorescence polarization, FITC-PAM2 peptide, dose response (AID 602259); assay type: functional; settings: read-out: IC50_Mean
# [7] = reduction of Shn3 3'UTR-driven luciferase in osteoblasts – cell-based, Clone20 osteoblasts, firefly luciferase, cherry-picked, dose response (AID 624132); assay type: functional;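 also: firefly luciferase luminescence from reporter carrying the Shn3 3'UTR in osteoblasts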
# [8] = loss of viability in HepG2 cells – cell-based, CellTiter-Glo, cherry-picked, cytotoxicity control for Shn3 inhibitor project, dose response (AID 624134); assay type: functional
# [9] = non-specific 3'UTR reporter inhibition in Clone20-Shn3RL – cell-based, Renilla luciferase, cherry-picked, counter-screen for Shn3 inhibitor project, dose response (AID 624133); assay type: functional
# [10] = HEK-293T viability loss after treatment – luminescence, T-cell screen hits, cytotoxicity control for TCR NF-kB inhibitor project, dose response (AID 489026); assay type: functional, cell-based;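 also: cells exposed to compound about 14 hours before the viability readout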
# Fatty acid synthase [11] = target: T4, Fatty acid synthase (Homo sapiens, UniProt P49327); test: inhibition of human FAS-TE enzyme activity – biochemical, kinetic fluorescence intensity, dose response (AID 624326); assay type: functional;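 also: rate of fluorescence rise from hydrolysis of a fluorogenic O-methyl fluorescein ester substrate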
# Fatty acid synthase [12] = target: T4, Fatty acid synthase; test: inhibition of human FAS-TE enzyme activity – biochemical, endpoint fluorescence intensity, uHTS hits, dose response (AID 624327); assay type: functional;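 also: fluorescence from hydrolysis of an O-methyl fluorescein acyl ester substrate by the enzyme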
# HEK293 = test: EBV LMP1 TES2 canonical NF-kB signalling blockers – cell-based, HEK293, luciferase, cherry-pick, dose response (AID 588343); assay type: functional; settings: Homo sapiens
# [13] = blockers of HIV-1 envelope-mediated cell-cell fusion – cherry-pick, dose response (AID 652057); assay type: functional, cell-based
# [14] = blockers of HIV-1 ZM109 envelope-driven cell-cell fusion – HeLa effector, CEM target cells, luciferase, cherry-pick, dose response (AID 652058); assay type: functional, cell-based;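 also: luciferase signal from HIV-1 Env mediated cell-cell fusion of effector and target cells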
# [15] = HIV-1 AD8 envelope cell-cell fusion blockers – cherry-pick, dose response (AID 652062); assay type: functional, cell-based;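 also: luciferase signal from cell-cell fusion driven by HIV-1 clade B AD8 Env; potency is for inhibitors of fusion seen as a drop in luminescence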
# [16] = luciferase reporter signal suppression in cells – H4 neuroglioma cells, luminescence, dose response (AID 1990); assay type: functional, cell-based
# [17] = Luminescence Cell-Based Dose Response HTS to Identify Inhibitors of 5'UTR Stem-Loop Driven Prion Protein mRNA Translation in H4 Neuroglioblastoma Cells. [Related pubchem assays: 1827 (Project Summary), 1813 (Primary HTS)]; assay type: functional
# [18] = alpha-synuclein stem-loop luciferase translation blockers – H4 neuroglioma cells, luminescence, confirmation (AID 1988); assay type: functional, cell-based
# T3 sequence (P11940 whole entry): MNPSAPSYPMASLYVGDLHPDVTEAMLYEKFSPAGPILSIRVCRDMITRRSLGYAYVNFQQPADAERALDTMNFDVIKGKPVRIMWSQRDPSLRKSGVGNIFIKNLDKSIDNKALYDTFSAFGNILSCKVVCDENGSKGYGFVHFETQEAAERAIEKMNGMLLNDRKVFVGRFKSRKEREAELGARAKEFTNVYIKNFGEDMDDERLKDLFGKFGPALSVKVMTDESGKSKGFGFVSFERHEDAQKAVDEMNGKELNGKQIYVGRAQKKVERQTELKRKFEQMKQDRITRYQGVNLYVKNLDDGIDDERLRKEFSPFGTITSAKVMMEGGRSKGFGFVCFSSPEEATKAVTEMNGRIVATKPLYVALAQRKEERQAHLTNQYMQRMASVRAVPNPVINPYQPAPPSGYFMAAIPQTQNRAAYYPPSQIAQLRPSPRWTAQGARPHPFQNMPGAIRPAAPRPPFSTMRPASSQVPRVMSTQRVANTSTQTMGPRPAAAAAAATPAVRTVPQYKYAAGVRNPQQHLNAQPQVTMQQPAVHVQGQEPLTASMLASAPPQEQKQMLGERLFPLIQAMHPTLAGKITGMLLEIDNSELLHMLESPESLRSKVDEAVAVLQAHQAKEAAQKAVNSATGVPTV
# T4 sequence (P49327 whole entry): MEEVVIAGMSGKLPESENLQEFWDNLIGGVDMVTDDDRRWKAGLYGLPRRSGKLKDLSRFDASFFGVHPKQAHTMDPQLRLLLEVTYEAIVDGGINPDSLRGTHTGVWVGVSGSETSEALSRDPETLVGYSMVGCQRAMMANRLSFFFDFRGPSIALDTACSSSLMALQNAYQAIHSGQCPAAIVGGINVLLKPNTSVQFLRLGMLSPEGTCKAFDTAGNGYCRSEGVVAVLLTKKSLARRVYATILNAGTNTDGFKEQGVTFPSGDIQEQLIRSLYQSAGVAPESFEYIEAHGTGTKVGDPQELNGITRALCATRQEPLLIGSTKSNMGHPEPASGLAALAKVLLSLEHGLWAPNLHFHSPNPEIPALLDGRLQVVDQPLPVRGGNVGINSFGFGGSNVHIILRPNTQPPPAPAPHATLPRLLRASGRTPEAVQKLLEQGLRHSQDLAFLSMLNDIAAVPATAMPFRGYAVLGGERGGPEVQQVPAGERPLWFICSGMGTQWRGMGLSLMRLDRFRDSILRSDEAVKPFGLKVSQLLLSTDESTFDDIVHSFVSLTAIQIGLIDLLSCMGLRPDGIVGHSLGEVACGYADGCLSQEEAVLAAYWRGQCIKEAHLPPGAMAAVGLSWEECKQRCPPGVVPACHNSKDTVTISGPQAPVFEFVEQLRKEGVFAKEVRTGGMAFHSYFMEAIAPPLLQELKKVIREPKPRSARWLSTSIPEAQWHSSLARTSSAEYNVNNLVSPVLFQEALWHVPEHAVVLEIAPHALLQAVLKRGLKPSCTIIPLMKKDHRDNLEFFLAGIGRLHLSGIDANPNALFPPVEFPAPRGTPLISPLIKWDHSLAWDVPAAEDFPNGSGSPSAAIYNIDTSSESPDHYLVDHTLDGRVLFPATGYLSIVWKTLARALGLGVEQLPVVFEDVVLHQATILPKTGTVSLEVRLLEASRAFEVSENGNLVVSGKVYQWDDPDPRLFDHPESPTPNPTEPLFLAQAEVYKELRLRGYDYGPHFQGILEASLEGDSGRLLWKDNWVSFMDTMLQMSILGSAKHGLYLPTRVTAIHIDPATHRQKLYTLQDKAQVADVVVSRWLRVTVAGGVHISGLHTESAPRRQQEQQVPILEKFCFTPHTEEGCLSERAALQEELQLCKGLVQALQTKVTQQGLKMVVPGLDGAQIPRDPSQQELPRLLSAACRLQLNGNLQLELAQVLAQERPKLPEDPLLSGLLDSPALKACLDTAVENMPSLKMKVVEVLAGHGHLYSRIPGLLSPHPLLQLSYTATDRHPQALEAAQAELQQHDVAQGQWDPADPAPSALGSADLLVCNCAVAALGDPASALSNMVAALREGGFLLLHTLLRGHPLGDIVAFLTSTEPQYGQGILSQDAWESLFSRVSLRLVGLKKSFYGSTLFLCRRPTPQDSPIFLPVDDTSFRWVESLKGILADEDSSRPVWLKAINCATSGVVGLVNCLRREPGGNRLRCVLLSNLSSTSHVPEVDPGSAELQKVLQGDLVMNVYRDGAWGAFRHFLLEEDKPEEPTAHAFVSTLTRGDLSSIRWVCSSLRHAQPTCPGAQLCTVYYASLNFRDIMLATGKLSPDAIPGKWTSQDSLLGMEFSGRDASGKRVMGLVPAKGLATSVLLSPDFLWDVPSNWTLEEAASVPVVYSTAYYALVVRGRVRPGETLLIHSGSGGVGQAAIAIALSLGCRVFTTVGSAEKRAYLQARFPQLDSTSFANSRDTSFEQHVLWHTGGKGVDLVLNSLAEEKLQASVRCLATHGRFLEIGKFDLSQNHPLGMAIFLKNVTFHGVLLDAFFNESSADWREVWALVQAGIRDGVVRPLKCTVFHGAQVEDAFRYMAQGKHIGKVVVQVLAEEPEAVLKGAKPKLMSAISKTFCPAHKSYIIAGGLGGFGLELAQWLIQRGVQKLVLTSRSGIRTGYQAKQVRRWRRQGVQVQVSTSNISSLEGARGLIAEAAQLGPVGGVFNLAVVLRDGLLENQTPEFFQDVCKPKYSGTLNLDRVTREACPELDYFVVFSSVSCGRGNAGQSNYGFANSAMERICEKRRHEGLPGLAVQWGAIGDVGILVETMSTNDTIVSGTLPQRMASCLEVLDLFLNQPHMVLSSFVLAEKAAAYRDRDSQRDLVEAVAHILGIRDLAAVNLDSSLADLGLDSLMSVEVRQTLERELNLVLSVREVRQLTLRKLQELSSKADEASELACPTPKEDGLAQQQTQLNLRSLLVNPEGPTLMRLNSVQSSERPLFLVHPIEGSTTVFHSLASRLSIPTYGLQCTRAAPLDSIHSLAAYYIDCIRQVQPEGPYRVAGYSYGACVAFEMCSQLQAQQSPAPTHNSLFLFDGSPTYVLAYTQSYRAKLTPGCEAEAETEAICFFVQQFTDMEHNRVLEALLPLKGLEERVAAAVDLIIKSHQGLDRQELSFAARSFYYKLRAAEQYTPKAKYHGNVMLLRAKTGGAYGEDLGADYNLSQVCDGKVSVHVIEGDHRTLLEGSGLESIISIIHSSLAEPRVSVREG
compound,measurement,setting,value
CCOC(=O)C1=C(CNC(C)(C)CC(C)(C)C)NC(=O)NC1c1cccc([N+](=O)[O-])c1 (stereo not given),IC50,[1],> 50 µM (not active)
O=C(/C=C/c1ccc(Br)cc1)NC(=S)NNC(=O)c1ccco1,CC50,Vero,> 25 µM (active)
same,EC50,[2],0.343 µM (active)
same,EC50,Streptococcus,0.887 µM (active)
COc1cc(C#Cc2c(-c3cncn3C)n(C)c3ccc(-c4cnc(N5CCOCC5)nc4)cc23)cc(OC)c1,CC50,[3],29.3 µM (active)
O=C(NCc1cccnc1)C1CCC(CNS(=O)(=O)c2ccc(Cl)cc2)CC1 (stereo not given),IC50,[1],2.58 µM (not active)
OCCCNCc1ccc(N(c2ccccc2)c2ccccc2)cc1,CC50,Vero,> 25 µM (active)
COc1ccc(N(C(=O)c2snc(C(N)=O)c2N)C(C(=O)NC2CCCC2)c2cccs2)cc1OC (stereo not given),IC50,[4],> 20 µM (inactive)
S=C(Nc1ccc(Nc2ccccc2)cc1)Nc1ccccn1,IC50,[5],> 66 µM (inactive)
same,CC50,[3],> 40 µM (active)
same,AC50,INS1,6.34 µM (active)
same,IC50,[6],> 66 µM (inactive)
Cc1c(CCOC(=O)CC23CC4CC(CC(C4)C2)C3)sc[n+]1CC(=O)c1ccccc1,IC50,[4],> 20 µM (inactive)
C=C(CN(C)C)C(=O)c1ccc(C)cc1C,AC50,[7],0.77 µM (active)
same,AC50,[8],18.5 µM (active)
same,AC50,[9],5.15 µM (active)
Cc1ccc(S(=O)(=O)Nc2cccc(-c3ccc4nncn4n3)c2)cc1,IC50,[10],> 80 µM (inactive)
same,IC50,Fatty acid synthase [11],21.3 µM (inactive)
same,IC50,Fatty acid synthase [12],15.7 µM (active)
COc1ccccc1-c1sc2cc3c(cc2c1-c1ccc(OCCN2CCCCC2)cc1)OCO3,IC50,[4],> 20 µM (inactive)
CC(C)=CCC/C(C)=C/CNC(=O)C[C@H]1C[C@H](C(=O)N(C(C)C)C(C)C)[C@@]2(C)c3[nH]c4cc(CCC(=O)N(C)C)ccc4c3CCN2C1=O,AC50,[7],2.05 µM (active)
same,AC50,[9],11.9 µM (active)
CCOc1ccc(CCN2C(=S)N([C@@H](CC(C)C)CN3CCCC3CN3C(=S)NC[C@@H]3Cc3ccc(O)cc3)C[C@@H]2Cc2ccc(O)cc2)cc1 (stereo not given in full),AC50,[7],11.5 µM (active)
same,AC50,[8],53.9 µM (active)
same,AC50,[9],6.52 µM (active)
O=C1C=C(c2ccc3ncccc3c2)C[C@@H](c2ccc3c(c2)OCO3)C1,IC50,[10],> 80 µM (inactive)
CC1CCCN(CCCNC(=O)c2ccc3c(c2)N(Cc2cccc(Cl)c2)C(=O)c2ccccc2[S+]3[O-])C1 (stereo not given),CC50,Vero,> 25 µM (active)
O=C(NN=Cc1ccc(N(CCCl)CCCl)cc1)c1cccnc1,AC50,HEK293,1.08 µM (active)
Cc1ccc(Nc2nc(NCC3CC3)nc3ccsc23)c(C)c1,AC50,[7],5.82 µM (active)
same,AC50,[8],> 70 µM (inactive)
same,AC50,[9],19.4 µM (active)
O=C(O)c1ccc(N/N=C/c2cc3cc4c(cc3nc2Cl)OCCO4)cc1,AC50,HEK293,1.69 µM (active)
C[C@@H]1CN([C@H](C)CO)C(=O)c2cccc(NS(=O)(=O)c3cccs3)c2O[C@@H]1CN(C)Cc1ccc(Cl)c(Cl)c1,AC50,[13],0.444 µM (active)
same,AC50,[14],0.952 µM (active)
same,AC50,[15],2.53 µM (active)
COc1ccc2cc(C(N)=O)/c(=N\NC(=O)c3ccccc3)oc2c1,AC50,HEK293,2.83 µM (active)
same,EC50,[16],9.51 µM (inconclusive)
same,EC50,[17],8.54 µM (active)
same,EC50,[18],7.7 µM (active)
CC(=O)O[C@H]1C(=O)[C@]2(C)[C@H]([C@H](OC(=O)c3ccccc3)[C@]3(O)C[C@H](OC(=O)[C@H](O)[C@@H](NC(=O)c4ccccc4)c4ccccc4)C(C)=C1C3(C)C)[C@]1(OC(C)=O)CO[C@@H]1C[C@@H]2O,IC50,[10],> 80 µM (inactive)

# Source: ChEMBL document CHEMBL1201862, “PubChem BioAssay data set” (2004)
